For the data set the following is noted: in vivo.

In the case of `N#CC(O)c1ccccc1` (stereo not shown) [mandelonitrile], the “times less toxic than sodium cyanide” value was “approximately 18 times”.

Values taken from US9983211B2 (priority 2007, dated 2018).
